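Step 1: Grow cells in 96-well plates. Step 2: Expose to compound for 48 hours at 5 concentrations. Step 3: Interpolate endpoints linearly; if unreached, use highest concentration. Abbreviation: GI50, concentration required for 50% inhibition of growth. The concentration for full growth arrest is given as TGI.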
Tests used:
Assay in all cases: growth of human tumour cells (NCI), 48 h
[1] = test system: HS 578T breast
[2] = test system: RXF-631 renal
[3] = test system: XF 498 CNS

Structure (SMILES)	TGI [1] [µM]	TGI [2] [µM]	TGI [3] [µM]	other results
C[C@H]1C(=O)O[C@@H]2CCN3CC=C(COC(=O)[C@](C)(O)[C@@]1(C)O)[C@H]23	> 100			
CC(=O)NNc1nc(-c2ccc([N+](=O)[O-])cc2)c(C#N)c(=O)n1C	99.5			
COc1ccc(C2=C3SC=c4ccccc4=C3ON=C2c2ccccc2)cc1	> 100			
O=C(Nc1ccc([N+](=O)[O-])cc1[N+](=O)[O-])C(=O)C(C(=O)c1ccc2ccccc2c1)C1OC(=O)c2ccccc21 (stereo unspecified)		66.3		
CN(C)CCNC(=O)c1cccc2ccc(-c3ccc(F)cc3)nc12			10.2	
O=P1(c2ccccc2)Nc2ccccc2SSc2ccccc2N1			32.7	
COc1ccc2c(c1)CCCN2CCCCCCCCCCN(CCC(C)C)CCC(C)C		27.3	20.9	
COc1ccc(/C(Cl)=C(\C=O)c2ccc(OC)cc2)cc1		> 100		
CCCOC(=O)CNC(=O)OC(C)(C)C		> 100	> 100	
NCCc1cc(O)c(O)cc1O	> 100			GI50 [1]: 34.4 µM
CCOC(=O)c1c2c(n(Cc3ccccc3)c1C)C(=O)C(=O)c1ccccc1-2	2.19			
Nc1n[nH]c(=O)c2c1c(I)cn2C1OC(CO)C(O)C1O (stereo unspecified)		7.36	8.3	
